We go through 28 compounds from patent US10391095B2, “DNA-PK inhibitors” (Vertex Pharmaceuticals Incorporated, priority 2012, dated 2019).

For the assay, the target named is DNA-PK (Homo sapiens, UniProt P78527). The assay is described as follows: DNA-PK inhibition assay (radiometric, 33P-ATP). Type of assay: biochemical. The conditions noted are these: 100 μM ATP, competitive tight-binding fit. The method in brief:
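33P transfer from 100 µM ATP to a DNA-PK peptide (0.8 mg/mL) is measured after 45 min, using about 6 nM enzyme activated by 10 µg/mL sheared dsDNA (HEPES pH 7.5, MgCl2, DTT). Filter-bound counts fitted to a competitive tight-binding inhibition model give Ki.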

The Ki is the dissociation constant of the complex between target and ligand, obtained from inhibition or displacement. A low value points to tighter binding. `C=C(CNc1cc(-c2ccc(C)nc2)ncn1)c1cnc(N)nc1OC` [Compound 453] registered an inhibitory constant (Ki) of under 0.03 µM.

The compound `CNC(=O)c1ccnc2c([C@H](C)CNc3cc(-c4ccnc(CO)c4)ncn3)cccc12` [Compound 890] showed a Ki of under 0.03 µM.

Consider `CNC(=O)CNc1ccc(-c2cc(NC[C@@H](C)c3cccc4c(C(=O)NC)ccnc34)ncn2)cn1` [Compound 632], for which the Ki was under 0.03 µM.

`CNC(=O)c1ccnc2c([C@H](C)CNc3cc(-c4cnc5c(cnn5C(C)(C)C)c4)ncn3)cccc12` [Compound 619] gave a Ki of under 0.03 µM.

`CNC(=O)c1ccnc2c([C@H](C)CNc3cc(-c4ccc(NCCCO)nc4)ncn3)cccc12` [Compound 715] came in with a Ki of under 0.03 µM.

As to `CNC(=O)c1ccnc2c([C@H](C)CNc3cc(-c4ccc(C)nc4)ncn3)ccc(OC)c12` [Compound 509], the inhibition constant Ki is under 0.03 µM.

In turn, `CCOc1ccccc1[C@H](C)CNc1cc(-c2ccc(N3CCN(C)CC3)nc2)ncn1` [Compound 152] came in with a Ki of under 0.03 µM.

Take `Cc1ncc(-c2cc(NC[C@@H](C)c3cccc4cc(F)cnc34)ncn2)cn1` [Compound 667]: the Ki is under 0.03 µM.

As for `CNc1ccccc1[C@H](C)CNc1cc(-c2ccc(C(=O)NCCC#N)nc2)ncn1` [Compound 408], the inhibitory constant (Ki) is under 0.03 µM.

For the compound `CNC(=O)c1ccc([C@H](C)CNc2cc(-c3ccnc4c3ccn4C3COC3)ncn2)c(OC)c1` [Compound 479], the Ki was under 0.03 µM.

`CC(CNc1cc(-c2cnc3c(cnn3CC3CC3)c2)ncn1)c1ccccc1OC1COC1` (stereo not shown) [Compound 217] registered a Ki of under 0.03 µM.

`CNC(=O)c1ccnc2c([C@H](C)CNc3cc(-c4ccnc(C5CC5)c4)ncn3)ccc(F)c12` [Compound 914] showed a Ki of under 0.03 µM.

In turn, `CNC(=O)c1ccnc2c([C@H](C)CNc3cc(-c4ccc(N5CCN(CC(F)(F)F)CC5)nc4)ncn3)cccc12` [Compound 780] came in with a Ki of under 0.03 µM.

Turning to `COCCn1ncc2cc(-c3cc(NCC(C)c4ccccc4OC4COC4)ncn3)cnc21` (stereo not shown) [Compound 215], the Ki was under 0.03 µM.

In the case of `CNC(=O)c1ccnc2c([C@H](C)CNc3cc(-c4ccc(NCC(F)F)nc4)ncn3)cccc12` [Compound 975], the Ki is under 0.03 µM.

In the case of `C[C@H](CNc1cc(-c2cnc3c(cnn3C3CN(C(=O)OC(C)(C)C)C3)c2)ncn1)c1ccnc2c1OCCO2` [Compound 526], the Ki is under 0.03 µM.

Regarding `CNC(=O)c1ccnc2c([C@H](C)CNc3cc(-c4cnc(C(C)(C)C)nc4)ncn3)cccc12` [Compound 791], the Ki was under 0.03 µM.

In the case of `CNC(=O)c1ccnc2c([C@H](C)CNc3cc(-c4ccc(N(C)CC5CC5)nc4)ncn3)cccc12` [Compound 625], the Ki is under 0.03 µM.

As to `CCNc1ncc(-c2cc(NC[C@@H](C)c3ccc(F)c4c(C(=O)NC)ccnc34)ncn2)cn1` [Compound 931], the Ki was under 0.03 µM.

Compound `CNC(=O)c1ccc([C@H](C)CNc2cc(-c3ccc(N4CCOCC4)nc3)ncn2)c(OC)c1` [Compound 367] gave a Ki of under 0.03 µM.

Consider `CNC(=O)c1ccnc2c([C@H](C)CNc3cc(-c4ccc5c(c4)N(C)CCO5)ncn3)cccc12` [Compound 864], for which the Ki is under 0.03 µM.

Turning to `CNC(=O)c1c(F)cnc2c([C@H](C)CNc3cc(-c4cnc(C5CCOCC5)nc4)ncn3)cccc12` [Compound 833], the inhibition constant Ki is under 0.03 µM.

`COc1cc(C(=O)NOCc2ccccc2)ccc1C(C)CNc1cc(-c2ccc(C)nc2)ncn1` (stereo not shown) [Compound 222] gave a Ki of under 0.03 µM.

Turning to `CNC(=O)c1ccnc2c([C@H](C)CNc3cc(-c4ccc(OC(C)C)nc4)ncn3)cccc12` [Compound 959], the Ki was under 0.03 µM.

On to `CNC(=O)c1ccnc2c([C@H](C)CNc3cc(-c4cnc5c(c4)CCN5)ncn3)cccc12` [Compound 954], for which the Ki is under 0.03 µM.

`CNCCCNc1ccc(-c2cc(NC[C@@H](C)c3ccccc3OC)ncn2)cn1` [Compound 201] came in with a Ki of under 0.03 µM.

For the compound `Cc1ncc(-c2cc(NC[C@@H](C)c3cccc4c(C(F)F)c(F)cnc34)ncn2)cn1` [Compound 813], the Ki was under 0.03 µM.

As to `COCCn1ccc2cc(-c3cc(NCCc4ccccc4OC)ncn3)cnc21` [Compound 38], the Ki was under 0.03 µM.
